Source: paper PMC9369311, “Examination of Intracellular GPCR-Mediated Signaling with High Temporal Resolution” (International Journal of Molecular Sciences, 2022)
Where “and” joins values, the source holds several entries; their conditions need not be identical. Identical values can stand only once.

Target: T1, DmOctα1B receptor (Drosophila melanogaster, UniProt Q7JQF1)
T1 construct: expressed in transfected cells
T1 sequence (Q7JQF1 1-645): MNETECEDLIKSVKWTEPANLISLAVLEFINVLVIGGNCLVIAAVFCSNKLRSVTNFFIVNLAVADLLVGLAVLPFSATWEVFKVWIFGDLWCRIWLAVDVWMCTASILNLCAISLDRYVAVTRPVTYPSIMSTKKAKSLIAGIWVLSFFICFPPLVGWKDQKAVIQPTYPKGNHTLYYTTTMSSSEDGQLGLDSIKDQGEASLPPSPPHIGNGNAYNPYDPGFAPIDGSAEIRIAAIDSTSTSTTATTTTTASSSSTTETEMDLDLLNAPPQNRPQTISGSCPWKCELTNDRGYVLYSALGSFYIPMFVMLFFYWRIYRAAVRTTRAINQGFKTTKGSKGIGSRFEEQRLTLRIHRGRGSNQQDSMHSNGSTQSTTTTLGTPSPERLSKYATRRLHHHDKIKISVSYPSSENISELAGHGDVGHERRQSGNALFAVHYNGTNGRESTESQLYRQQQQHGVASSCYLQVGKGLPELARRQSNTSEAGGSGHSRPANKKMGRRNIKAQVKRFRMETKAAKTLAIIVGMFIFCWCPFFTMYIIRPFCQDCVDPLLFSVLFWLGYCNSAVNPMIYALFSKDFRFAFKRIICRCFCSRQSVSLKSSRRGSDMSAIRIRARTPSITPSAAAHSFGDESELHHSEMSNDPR
Assay: Stopped-flow Ca2+ fluorescence measurements, DmOctα1B-expressing HEK293 cells
Format: cell-based
Details: for response time: Fluo-4 or GCaMP3.0
Experimental: As described for the fluorimetric measurements performed in 96 well plates, the stimulation of the DmOctα1B receptors with octopamine results in an efflux of Ca^2+ from the intracellular stores, which was now analyzed by stopped-flow experiments with high temporal resolution. The cells loaded with Fluo-4 or constitutively expressing GCaMP3.0 were diluted in extracellular solution (ES) to a density of 1 × 10^6 cells/mL prior to application to the stopped-flow system. The cells were mixed with increasing ligand concentrations and the fluorescence signals were monitored for 40 s (Figure 3). The increasing ligand concentrations lead to a rise in the fluorescence intensities. The initial Ca^2+ responses were detected at 1 nM octopamine and saturated at ligand concentrations ≥ 30 nM. After reaching a maximum, the fluorescence intensities decreased (Figure 3A1). This effect was more pronounced for concentrations ≤ 30 nM. In the cells expressing GCaMP3.0 (DmOctα1B-GCaMP3.0), additional increases in Ca^2+ were resolved (Figure 3B1), probably monitoring the Ca^2+ oscillations that are known to be induced upon DmOctα1B activation. To determine the ligand affinities for the receptor, the maximal fluorescence intensities were plotted against the octopamine concentrations. […] The EC50 values were obtained from nonlinear fitting of the data, using GraphPad Prism v5.04. […] Besides the determination of the EC50 values, information about reaction velocities could be gained when analyzing the first 4 s of the measurements. The increasing octopamine concentrations correlated with faster signal detection (Figure 3A2,B2). […] The reaction velocities in a concentration range from 3 nM to 300 nM octopamine were almost identical for the Fluo-4-loaded and the GCaMP3.0-expressing cells.
For the stopped-flow measurements, the SFM-400 system (BioLogic, Münster, Germany) was used. The main component of the stopped-flow setup is the SFM-400 module with four 10 mL syringes, which can be filled by external valves. The syringes are driven by step motors. The reactants can be mixed in three individual mixing chambers (M1–M3). The volume between M1 and M2 is 21 µL, and 31 µL between M2 and M3. The observation chamber is a quartz cuvette (FC-15) with a reaction volume of 31 µL, installed behind M3. To avoid fluctuations of the reaction mixture in the cuvette, which might lead to noisy and inconsistent signals, a hard stop valve located behind the cuvette can be closed after injection of the reactants. The stopped-flow module is controlled via a MPS-60 control unit (BioLogic). Data acquisition and operation of the system were performed with the Bio-Kine 32 v4.74 software (BioLogic).
The reactions in the cuvette were analyzed via the changes in the fluorescence. A 150 W Xe/Hg-lamp (ALX-220; BioLogic) was used as a light source for the excitation. The excitation light was guided via a light guide towards the cuvette. To determine the wavelength of the excitation light, a 482 nm bandpass filter (482/35 nm BrightLine® single-band bandpass filter; Semrock, Rochester, NY, USA) was used. A heat protection filter (3 mm; KG1, Schott; Mainz, Germany) was placed between the Xe/Hg-lamp and the excitation filter. The fluorescence was detected with a photomultiplier (PMS 200, BioLogic) installed rectangularly to the light path of the excitation light. Between the cuvette and the photomultiplier tube a 535 nm bandpass emission filter (XF3007 535AF35; Horiba, Oberursel, Germany) was placed to select for the emission light being detected by the photomultiplier. A voltage of 600 V was applied to the photomultiplier.
The fluorescence measurements were performed either directly with the cells expressing GCaMP3.0 or after loading the cells with Fluo-4-AM. Changes in the intracellular Ca^2+ were induced by stimulating the cells with a concentration series of different ligands. In the stopped-flow module, four different solutions can be mixed. […]

Q: Which results are given for `NCC(O)c1ccc(O)cc1` (stereo not drawn) [octopamine]?
A: response time (low ligand concentrations ≤ 3 nM (1 nM elsewhere in the source)): ~ 2 s and 2 s; Signal Response Time (saturating concentration, DmOctα1B cells loaded with Fluo-4, mean ± SEM): 0.35 ± 0.04 s; Signal Response Time (saturating concentration, DmOctα1B-GCaMP3.0 cells, mean ± SEM): 0.36 ± 0.05 s; Signal Response Time (saturating ligand concentration, DmOctα1B cell lines, Fluo-4 and GCaMP3.0): 0.35 s; response time (saturating octopamine concentrations (≥30 nM; 300 nM)): ~ 300 ms and ≈ 350 ms; concentration at which initial Ca2+ responses were detected (stopped-flow, DmOctα1B cells): 1 nM; ligand concentration at which Ca2+ responses saturated (stopped-flow, DmOctα1B cells): ≥ 30 nM; EC50 (stopped-flow, DmOctα1B cells loaded with Fluo-4, mean ± SEM): 2.25 nM and 2.3 nM; EC50 (stopped-flow, DmOctα1B-GCaMP3.0 cells, mean ± SEM): 1.7 ± 0.1 nM
